The IC50 is the point on the concentration scale where inhibition reaches its midpoint.

The text below walks through data of patent US12472187B2, “Texaphyrin-Pt(IV) conjugates and compositions for use in overcoming platinum resistance” (BOARD OF REGENTS, THE UNIVERSITY OF TEXAS SYSTEM, priority 2014, dated 2025).

Assay [1] concerns 2780CP cells. Nature of the assay: MTT (tetrazolium dye reduction) proliferation assay, cisplatin resistant 2780CP cells. The format is cell-based, human. The following applies: ratio of IC50 in 2780CP to A2780; rows for cisplatin and 2 rest on cited IC50. The protocol: The A2780 line was established from a patient's biopsy prior to initiation of any chemotherapeutic regimen (Godwin, et al., 1992). The resistant cell line, 2780CP, used in this study, was established from A2780 cells, as described by Siddik, et al., 1998. The two cell lines have wild-type p53 genotype and/or function. Cells were grown in RPMI containing 10% fetal calf serum and antibiotics (100 μg/mL streptomycin and 100 U/mL penicillin).
The proliferation of exponential phase cultures of A2780 and 2780CP cells was assessed by tetrazolium dye reduction (Mosmann, 1983, which is incorporated herein by reference). […] After a total incubation time of 6 days at 37° C., 50 μL of a stock solution at 3 mg/ml of the tetrazolium dye, 3-(4,5-dimethylthiazol-2-yl)-2,5-diphenyltetrazolium bromide (MTT, Sigma Chemical) were added to each well, the plates incubated at 37° C. for 4 hours, whereupon the medium was removed, the formazan product dissolved in DMSO (50-100 μL) and absorbance values at 570 nm was measured using a microplate reader (Molecular Devices, Sunnyvale, CA). Absorbance values were corrected for background and then normalized to wells containing untreated cells to allow plate-to-plate comparisons. […]
The anti-proliferative effects of conjugates 4 and 5 were assessed with platinum sensitive human ovarian A2780 cells and the isogenic cisplatin resistant 2780CP cell line. […]

Another assay has as its system A2780 cells. The following applies: platinum sensitive A2780 cells; data from Arambula, et al., 2012; cited from earlier work.
Assay [2] concerns 2780CP cells. The conditions noted are these: cisplatin resistant 2780CP cells; data from Arambula, et al., 2012; cited from earlier work.
The subject of a further assay is A2780 cancer cells. Nature of the assay: MTT antiproliferative assay of Pt(IV), MGd and MGd+Pt(IV) on A2780 cancer cells. The format is cell-based. The following applies: agent alone, read-out: IC50 (growth inhibition), single agent. The protocol:
A2780 cancer cells were incubated (37° C., 5% CO2 atmosphere, dark) in 96-wells plates at a concentration of 600 cells/well, in a culture medium containing 10% fetal bovine serum and supplemented with penicillin and streptomycin. After 15 h, drugs (Pt(IV), MGd, MGd+Pt(IV)) were added to cells (gradient of concentration, from 0 to 200 μM, 3-fold dilutions) and plates were incubated for five more days using the above conditions. After five days, MTT dye was added in each well (0.15 mg/well) and plates were left for 4 hours in the incubator. Then, supernatant was carefully removed and 50 μL of DMSO were added to dissolve MTT purple formazan crystals. The absorbance was read at 570 nm using a plate reader.
For orientation: Tetrazolium assays rely on reduction of a dye to a coloured formazan, in cell work by metabolically active cells.

With `N.N.[Cl][Pt][Cl]` [Cisplatin], the “Resistance factor = IC50(2780CP)/IC50(A2780)” value with 2780CP cells [1] stood at 18.25. The half-inhibitory concentration (IC50) in the assay on A2780 cells was 0.33 µM; in the assay on 2780CP cells [2], 7.3 µM.
Take `CC(=O)[O-].CC(=O)[O-].CCc1c(CC)c2cc3nc(cnc4cc(OCCOCCOCCOC)c(OCCOCCOCCOC)cc4ncc4nc(cc1[n-]2)C(CCCO)=C4C)C(C)=C3CCCO.[Gd+3]` [Compound 1, motexafin gadolinium]: in the assay with A2780 cancer cells, the IC50 came out at 78 µM.
